{
  "source": "paper PMC6429214",
  "about": "“Design, Synthesis and Biological Evaluation of Isoxazole-Based CK1 Inhibitors Modified with Chiral Pyrrolidine Scaffolds” (Molecules, 2019)",
  "experiment_in_all_cases": "33PanQinase panel",
  "type_in_all_cases": "biochemical",
  "key": {"[1]": {"target": "T1, ABL2 (Homo sapiens, UniProt P42684)", "T1 construct": "purchased ProQinase", "settings": "ABL2, 1 µM; read-out: Residual Activity (%)", "in_short": "(§1)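 Residual activity (%) relative to DMSO control was measured by radiometric 33P-based kinase activity assay with inhibitor at 1 µM and 1% final DMSO, across 320 wild-type kinases.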"}, "[2]": {"target": "T2, PRK1 (Homo sapiens, UniProt Q16512)", "T2 construct": "purchased ProQinase", "settings": "PRK1, 1 µM; read-out: Residual Activity (%)", "in_short": "as §1"}, "[3]": {"target": "T3, JAK2 (Homo sapiens, UniProt O60674)", "T3 construct": "purchased ProQinase", "T3 sequence (O60674 whole entry)": "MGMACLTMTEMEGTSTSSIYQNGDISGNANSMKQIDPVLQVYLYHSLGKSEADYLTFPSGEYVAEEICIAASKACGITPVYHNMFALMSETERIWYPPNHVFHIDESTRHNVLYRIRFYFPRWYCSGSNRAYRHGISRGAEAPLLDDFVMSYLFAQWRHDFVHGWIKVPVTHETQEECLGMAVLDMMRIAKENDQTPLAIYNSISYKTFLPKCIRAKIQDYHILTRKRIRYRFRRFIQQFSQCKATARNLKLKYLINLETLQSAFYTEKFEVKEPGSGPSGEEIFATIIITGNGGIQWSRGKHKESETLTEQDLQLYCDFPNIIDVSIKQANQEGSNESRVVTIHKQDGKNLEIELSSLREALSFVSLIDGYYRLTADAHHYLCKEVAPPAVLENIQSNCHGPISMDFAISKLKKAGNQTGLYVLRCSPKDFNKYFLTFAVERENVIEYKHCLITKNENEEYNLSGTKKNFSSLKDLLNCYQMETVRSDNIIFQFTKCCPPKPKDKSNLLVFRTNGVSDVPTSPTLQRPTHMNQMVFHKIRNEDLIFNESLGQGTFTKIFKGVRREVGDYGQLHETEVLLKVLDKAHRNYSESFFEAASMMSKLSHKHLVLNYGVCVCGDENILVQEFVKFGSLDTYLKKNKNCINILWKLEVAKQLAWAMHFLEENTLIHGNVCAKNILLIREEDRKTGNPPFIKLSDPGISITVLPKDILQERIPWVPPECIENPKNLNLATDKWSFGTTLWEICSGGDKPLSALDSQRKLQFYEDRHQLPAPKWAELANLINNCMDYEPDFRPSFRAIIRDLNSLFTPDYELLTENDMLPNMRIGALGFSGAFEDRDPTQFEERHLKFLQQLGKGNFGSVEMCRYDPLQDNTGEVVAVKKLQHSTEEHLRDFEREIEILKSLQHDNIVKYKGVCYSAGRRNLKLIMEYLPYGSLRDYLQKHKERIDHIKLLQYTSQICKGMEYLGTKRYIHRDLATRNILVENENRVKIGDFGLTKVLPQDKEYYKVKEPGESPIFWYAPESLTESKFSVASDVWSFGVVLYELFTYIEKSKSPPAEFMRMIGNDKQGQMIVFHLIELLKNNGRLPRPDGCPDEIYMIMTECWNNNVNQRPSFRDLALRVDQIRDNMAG", "settings": "JAK2, 1 µM; read-out: Residual Activity (%)", "in_short": "as §1"}, "[4]": {"target": "T4, IKK-alpha (Homo sapiens, UniProt O15111)", "T4 construct": "purchased ProQinase", "T4 sequence (O15111 whole entry)": "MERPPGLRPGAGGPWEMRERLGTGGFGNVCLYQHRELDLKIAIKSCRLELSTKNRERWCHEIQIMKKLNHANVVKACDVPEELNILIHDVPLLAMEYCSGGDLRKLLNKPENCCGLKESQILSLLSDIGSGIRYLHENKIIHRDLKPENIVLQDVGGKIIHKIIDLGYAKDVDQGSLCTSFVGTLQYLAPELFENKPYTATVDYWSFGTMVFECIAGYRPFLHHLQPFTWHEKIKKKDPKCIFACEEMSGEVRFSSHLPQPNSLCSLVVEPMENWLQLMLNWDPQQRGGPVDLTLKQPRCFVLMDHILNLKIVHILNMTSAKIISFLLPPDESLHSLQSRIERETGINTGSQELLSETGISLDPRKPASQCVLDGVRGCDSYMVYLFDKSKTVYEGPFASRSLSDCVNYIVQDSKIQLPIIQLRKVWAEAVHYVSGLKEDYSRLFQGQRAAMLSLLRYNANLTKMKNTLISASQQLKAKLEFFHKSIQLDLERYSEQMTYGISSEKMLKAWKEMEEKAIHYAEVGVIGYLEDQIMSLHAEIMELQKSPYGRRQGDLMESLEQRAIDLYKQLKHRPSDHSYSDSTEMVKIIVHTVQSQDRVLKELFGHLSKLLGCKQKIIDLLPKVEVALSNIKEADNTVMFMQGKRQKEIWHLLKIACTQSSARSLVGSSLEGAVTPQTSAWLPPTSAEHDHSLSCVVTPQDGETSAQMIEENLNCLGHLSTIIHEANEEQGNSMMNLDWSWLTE", "settings": "read-out: Residual Activity (%)", "in_short": "as §1"}, "[5]": {"target": "T5, CDK4/CycD1 (Homo sapiens, UniProt P11802)", "T5 construct": "purchased ProQinase", "settings": "CDK4/CycD1, 1 µM; read-out: Residual Activity (%)", "in_short": "as §1"}, "[6]": {"target": "T6, LYN (Homo sapiens, UniProt P07948)", "T6 construct": "purchased ProQinase", "settings": "read-out: Residual Activity (%)", "in_short": "as §1"}, "[7]": {"target": "T7, EIF2AK2 (Homo sapiens, UniProt P19525)", "T7 construct": "purchased ProQinase", "settings": "EIF2AK2, 1 µM; read-out: Residual Activity (%)", "in_short": "as §1"}, "[8]": {"target": "T8, CLK1 (Homo sapiens, UniProt P49759)", "T8 construct": "purchased ProQinase", "settings": "CLK1, 1 µM; read-out: Residual Activity (%)", "in_short": "as §1"}, "[9]": {"target": "T9, MKK4 (Homo sapiens, UniProt P45985)", "T9 construct": "purchased ProQinase", "settings": "MKK4, 1 µM; read-out: Residual Activity (%)", "in_short": "as §1"}, "[10]": {"target": "T10, CK1-gamma3 (Homo sapiens, UniProt Q9Y6M4)", "T10 construct": "purchased ProQinase", "settings": "CK1-gamma3, 1 µM; read-out: Residual Activity (%)", "in_short": "as §1"}, "[11]": {"target": "T11, HRI (Homo sapiens, UniProt Q9BQI3)", "T11 construct": "purchased ProQinase", "settings": "read-out: Residual Activity (%)", "in_short": "as §1"}, "[12]": {"target": "T12, SNK (Homo sapiens, UniProt Q9NYY3)", "T12 construct": "purchased ProQinase", "settings": "read-out: Residual Activity (%)", "in_short": "as §1"}, "[13]": {"target": "T13, CLK4 (Homo sapiens, UniProt Q9HAZ1)", "T13 construct": "purchased ProQinase", "settings": "CLK4, 1 µM; read-out: Residual Activity (%)", "in_short": "as §1"}, "[14]": {"target": "T14, DYRK4 (Homo sapiens, UniProt Q9NR20)", "T14 construct": "purchased ProQinase", "settings": "DYRK4, 1 µM; read-out: Residual Activity (%)", "in_short": "as §1"}, "[15]": {"target": "T15, MST4 (Homo sapiens, UniProt Q9P289)", "T15 construct": "purchased ProQinase", "T15 sequence (Q9P289 whole entry)": "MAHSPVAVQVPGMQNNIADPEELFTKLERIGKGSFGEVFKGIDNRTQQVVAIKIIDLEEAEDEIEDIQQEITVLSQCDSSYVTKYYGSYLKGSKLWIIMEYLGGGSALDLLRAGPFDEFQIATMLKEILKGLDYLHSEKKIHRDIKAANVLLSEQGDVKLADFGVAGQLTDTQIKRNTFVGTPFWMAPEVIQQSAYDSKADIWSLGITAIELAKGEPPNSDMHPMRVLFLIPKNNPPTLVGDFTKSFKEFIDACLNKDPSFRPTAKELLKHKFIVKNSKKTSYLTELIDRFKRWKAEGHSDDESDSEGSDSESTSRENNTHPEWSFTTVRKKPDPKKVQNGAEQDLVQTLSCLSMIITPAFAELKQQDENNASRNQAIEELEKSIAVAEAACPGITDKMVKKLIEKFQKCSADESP", "settings": "MST4, 1 µM; read-out: Residual Activity (%)", "in_short": "as §1"}, "[16]": {"target": "T16, EPHA1 (Homo sapiens, UniProt P21709)", "T16 construct": "purchased ProQinase", "settings": "EPHA1, 1 µM; read-out: Residual Activity (%)", "in_short": "as §1"}, "[17]": {"target": "T17, INSR-R (Homo sapiens, UniProt P14616)", "T17 construct": "purchased ProQinase", "settings": "read-out: Residual Activity (%)", "in_short": "as §1"}, "[18]": {"target": "T18, PDGFR-alpha (Homo sapiens, UniProt P16234)", "T18 construct": "purchased ProQinase", "settings": "read-out: Residual Activity (%)", "in_short": "as §1"}, "[19]": {"target": "T19, CDK5/p25NCK (Homo sapiens, UniProt Q00535)", "T19 construct": "purchased ProQinase", "T19 sequence (Q00535 whole entry)": "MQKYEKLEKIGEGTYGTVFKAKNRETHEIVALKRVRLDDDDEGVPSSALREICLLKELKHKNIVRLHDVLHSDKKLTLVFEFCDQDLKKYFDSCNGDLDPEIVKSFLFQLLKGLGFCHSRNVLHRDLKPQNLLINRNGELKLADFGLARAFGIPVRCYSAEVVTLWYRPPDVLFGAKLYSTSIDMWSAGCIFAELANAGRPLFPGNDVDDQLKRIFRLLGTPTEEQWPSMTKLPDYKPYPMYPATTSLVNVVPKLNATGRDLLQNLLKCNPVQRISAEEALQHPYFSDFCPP", "T19 sequence (Q15078 99-307 partner limits assumed)": "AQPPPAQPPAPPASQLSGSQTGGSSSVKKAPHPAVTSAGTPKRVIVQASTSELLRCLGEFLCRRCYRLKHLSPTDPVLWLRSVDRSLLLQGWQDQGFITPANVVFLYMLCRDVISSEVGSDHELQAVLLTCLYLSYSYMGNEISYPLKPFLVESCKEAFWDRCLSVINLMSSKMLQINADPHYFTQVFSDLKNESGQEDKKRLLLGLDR", "settings": "read-out: Residual Activity (%)", "in_short": "as §1"}, "[20]": {"target": "T20, ERBB4 (Homo sapiens, UniProt Q15303)", "T20 construct": "purchased ProQinase", "settings": "ERBB4, 1 µM; read-out: Residual Activity (%)", "in_short": "as §1"}, "[21]": {"target": "T21, EPHA6 (Homo sapiens, UniProt Q9UF33)", "T21 construct": "purchased ProQinase", "settings": "EPHA6, 1 µM; read-out: Residual Activity (%)", "in_short": "as §1"}, "[22]": {"target": "T22, BUB1B (Homo sapiens, UniProt O60566)", "T22 construct": "purchased ProQinase", "settings": "read-out: Residual Activity (%)", "in_short": "as §1"}, "[23]": {"target": "T23, TLK2 (Homo sapiens, UniProt Q86UE8)", "T23 construct": "purchased ProQinase", "settings": "TLK2, 1 µM; read-out: Residual Activity (%)", "in_short": "as §1"}, "[24]": {"target": "T24, CAMK2A (Homo sapiens, UniProt Q9UQM7)", "T24 construct": "purchased ProQinase", "T24 sequence (Q9UQM7 whole entry)": "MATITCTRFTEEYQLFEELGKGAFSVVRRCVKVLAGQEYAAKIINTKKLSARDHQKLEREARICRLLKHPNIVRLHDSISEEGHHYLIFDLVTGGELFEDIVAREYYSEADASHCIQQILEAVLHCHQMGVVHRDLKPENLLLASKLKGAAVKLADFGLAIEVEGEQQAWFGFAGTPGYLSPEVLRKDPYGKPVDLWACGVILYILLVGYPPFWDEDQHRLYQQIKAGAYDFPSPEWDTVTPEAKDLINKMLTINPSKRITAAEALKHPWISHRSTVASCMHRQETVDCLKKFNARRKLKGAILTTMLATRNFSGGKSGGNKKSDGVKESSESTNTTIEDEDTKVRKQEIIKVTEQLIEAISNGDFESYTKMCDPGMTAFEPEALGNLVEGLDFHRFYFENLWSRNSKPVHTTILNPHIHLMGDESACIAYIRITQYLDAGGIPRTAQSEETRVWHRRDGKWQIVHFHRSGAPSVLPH", "settings": "read-out: Residual Activity (%)", "in_short": "as §1"}, "[25]": {"target": "T25, MEKK3 (Homo sapiens, UniProt Q99759)", "T25 construct": "purchased ProQinase", "T25 sequence (Q99759 whole entry)": "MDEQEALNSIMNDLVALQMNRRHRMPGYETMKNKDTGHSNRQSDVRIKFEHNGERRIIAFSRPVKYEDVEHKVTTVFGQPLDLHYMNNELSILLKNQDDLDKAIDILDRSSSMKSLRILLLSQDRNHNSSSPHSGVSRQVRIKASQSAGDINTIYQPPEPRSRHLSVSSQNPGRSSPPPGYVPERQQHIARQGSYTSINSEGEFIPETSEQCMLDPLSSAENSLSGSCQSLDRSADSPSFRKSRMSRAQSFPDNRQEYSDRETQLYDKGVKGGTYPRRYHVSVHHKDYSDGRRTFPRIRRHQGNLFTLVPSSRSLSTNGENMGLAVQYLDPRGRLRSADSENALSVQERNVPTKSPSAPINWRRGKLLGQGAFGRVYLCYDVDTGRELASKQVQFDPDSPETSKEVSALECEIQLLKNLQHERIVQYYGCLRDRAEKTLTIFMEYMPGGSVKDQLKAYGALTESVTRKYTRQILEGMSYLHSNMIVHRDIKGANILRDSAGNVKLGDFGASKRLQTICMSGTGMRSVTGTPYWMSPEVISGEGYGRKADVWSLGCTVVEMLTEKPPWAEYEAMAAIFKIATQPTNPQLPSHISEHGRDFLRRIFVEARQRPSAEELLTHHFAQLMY", "settings": "MEKK3, 1 µM; read-out: Residual Activity (%)", "in_short": "as §1"}, "[26]": {"target": "T26, PYK2 (Homo sapiens, UniProt Q14289)", "T26 construct": "purchased ProQinase", "T26 sequence (Q14289 whole entry)": "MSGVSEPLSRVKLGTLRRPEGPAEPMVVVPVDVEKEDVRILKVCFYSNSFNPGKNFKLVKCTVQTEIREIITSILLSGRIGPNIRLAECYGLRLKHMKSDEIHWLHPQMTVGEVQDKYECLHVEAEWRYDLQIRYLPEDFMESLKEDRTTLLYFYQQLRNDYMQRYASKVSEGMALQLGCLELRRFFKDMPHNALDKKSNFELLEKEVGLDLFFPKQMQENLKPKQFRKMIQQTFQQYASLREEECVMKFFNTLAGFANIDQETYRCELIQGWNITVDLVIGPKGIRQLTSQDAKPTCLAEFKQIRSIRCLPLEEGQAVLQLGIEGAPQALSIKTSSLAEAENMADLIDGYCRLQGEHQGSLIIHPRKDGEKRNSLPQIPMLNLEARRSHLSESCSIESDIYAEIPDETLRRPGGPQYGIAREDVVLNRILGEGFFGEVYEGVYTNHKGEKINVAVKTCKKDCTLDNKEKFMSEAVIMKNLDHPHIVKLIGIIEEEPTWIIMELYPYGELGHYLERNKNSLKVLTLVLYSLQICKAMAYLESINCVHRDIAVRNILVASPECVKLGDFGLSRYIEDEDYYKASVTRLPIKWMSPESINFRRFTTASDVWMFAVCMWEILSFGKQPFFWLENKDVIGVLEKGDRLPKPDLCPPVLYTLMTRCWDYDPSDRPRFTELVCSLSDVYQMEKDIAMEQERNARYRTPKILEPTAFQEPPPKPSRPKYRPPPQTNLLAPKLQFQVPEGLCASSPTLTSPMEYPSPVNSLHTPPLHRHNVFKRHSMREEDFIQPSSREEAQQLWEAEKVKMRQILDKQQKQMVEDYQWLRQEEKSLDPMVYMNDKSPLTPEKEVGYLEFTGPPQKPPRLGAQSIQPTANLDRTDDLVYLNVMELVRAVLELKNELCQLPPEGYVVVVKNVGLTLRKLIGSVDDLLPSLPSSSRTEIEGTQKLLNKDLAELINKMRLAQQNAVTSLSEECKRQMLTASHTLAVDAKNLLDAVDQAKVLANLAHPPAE", "settings": "PYK2, 1 µM; read-out: Residual Activity (%)", "in_short": "as §1"}, "[27]": {"target": "T27, PLK3 (Homo sapiens, UniProt Q9H4B4)", "T27 construct": "purchased ProQinase", "settings": "PLK3, 1 µM; read-out: Residual Activity (%)", "in_short": "as §1"}, "[28]": {"target": "T28, MELK (Homo sapiens, UniProt Q14680)", "T28 construct": "purchased ProQinase", "settings": "read-out: Residual Activity (%)", "in_short": "as §1"}},
  "data": [
    {"compound": "COc1ccc(-c2cc(C(=O)Nc3cc(-c4c(-c5ccc(F)cc5)noc4C(C)C)ccn3)n(CC3NCC(O)C3O)c2)cc1", "note": "(stereo not shown) [29d]", "values": [
      {"measurement": "remaining activity at 1 µM", "setting": "[1]", "value": 110, "unit": "%"},
      {"measurement": "remaining activity at 1 µM", "setting": "[2]", "value": 94, "unit": "%"},
      {"measurement": "remaining activity at 1 µM", "setting": "[3]", "value": 80, "unit": "%"},
      {"measurement": "remaining activity at 1 µM", "setting": "[4]", "value": 98, "unit": "%"},
      {"measurement": "remaining activity at 1 µM", "setting": "[5]", "value": 108, "unit": "%"},
      {"measurement": "remaining activity at 1 µM", "setting": "[6]", "value": 122, "unit": "%"},
      {"measurement": "remaining activity at 1 µM", "setting": "[7]", "value": 132, "unit": "%"},
      {"measurement": "remaining activity at 1 µM", "setting": "[8]", "value": 97, "unit": "%"},
      {"measurement": "remaining activity at 1 µM", "setting": "[9]", "value": 109, "unit": "%"},
      {"measurement": "remaining activity at 1 µM", "setting": "[10]", "value": 74, "unit": "%"},
      {"measurement": "remaining activity at 1 µM", "setting": "[11]", "value": 93, "unit": "%"},
      {"measurement": "remaining activity at 1 µM", "setting": "[12]", "value": 108, "unit": "%"},
      {"measurement": "remaining activity at 1 µM", "setting": "[13]", "value": 104, "unit": "%"},
      {"measurement": "remaining activity at 1 µM", "setting": "[14]", "value": 80, "unit": "%"},
      {"measurement": "remaining activity at 1 µM", "setting": "[15]", "value": 108, "unit": "%"},
      {"measurement": "remaining activity at 1 µM", "setting": "[16]", "value": 120, "unit": "%"},
      {"measurement": "remaining activity at 1 µM", "setting": "[17]", "value": 89, "unit": "%"},
      {"measurement": "remaining activity at 1 µM", "setting": "[18]", "value": 89, "unit": "%"},
      {"measurement": "remaining activity at 1 µM", "setting": "[19]", "value": 92, "unit": "%"},
      {"measurement": "remaining activity at 1 µM", "setting": "[20]", "value": 103, "unit": "%"},
      {"measurement": "remaining activity at 1 µM", "setting": "[21]", "value": 108, "unit": "%"},
      {"measurement": "remaining activity at 1 µM", "setting": "[22]", "value": 90, "unit": "%"},
      {"measurement": "remaining activity at 1 µM", "setting": "[23]", "value": 108, "unit": "%"},
      {"measurement": "remaining activity at 1 µM", "setting": "[24]", "value": 87, "unit": "%"},
      {"measurement": "remaining activity at 1 µM", "setting": "[25]", "value": 104, "unit": "%"},
      {"measurement": "remaining activity at 1 µM", "setting": "[26]", "value": 116, "unit": "%"},
      {"measurement": "remaining activity at 1 µM", "setting": "[27]", "value": 112, "unit": "%"},
      {"measurement": "remaining activity at 1 µM", "setting": "[28]", "value": 107, "unit": "%"}
    ]}
  ]
}
